Measured values from ChEMBL document CHEMBL1143301, “Novel HDAC6 isoform selective chiral small molecule histone deacetylase inhibitors” (Bioorg Med Chem Lett, 2009).
Active and inactive are the calls of the source. The rule behind the calls is not given here.

Key:
T-24 [1] = experiment: Induction of alpha tubulin acetylation in human T24 cells; type: functional, cell-based
T-24 [2] = experiment: Induction of histone H3 acetylation in human T24 cells; type: functional, cell-based
Histone deacetylase 8 = biological target: T1, Histone deacetylase 8 (Homo sapiens, UniProt Q9BY41); experiment: Inhibition of human recombinant histone deacetylase 8
T1 sequence (Q9BY41 whole entry): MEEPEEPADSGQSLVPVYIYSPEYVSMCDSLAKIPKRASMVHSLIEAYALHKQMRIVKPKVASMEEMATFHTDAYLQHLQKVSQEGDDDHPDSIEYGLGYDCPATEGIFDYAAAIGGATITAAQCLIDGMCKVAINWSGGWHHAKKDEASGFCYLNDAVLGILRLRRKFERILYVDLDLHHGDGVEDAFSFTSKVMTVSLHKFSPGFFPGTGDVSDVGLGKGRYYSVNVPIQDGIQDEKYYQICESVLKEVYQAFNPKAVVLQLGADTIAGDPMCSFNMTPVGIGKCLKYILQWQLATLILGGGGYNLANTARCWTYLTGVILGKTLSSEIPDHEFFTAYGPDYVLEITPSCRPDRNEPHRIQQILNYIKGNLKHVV

Homo sapiens [3] = organism: Homo sapiens; experiment: Selectivity ratio of IC50 for human recombinant histone deacetylase 2 to IC50 for human recombinant histone deacetylase 6
Homo sapiens [4] = organism: Homo sapiens; experiment: Selectivity ratio of IC50 for human recombinant histone deacetylase 8 to IC50 for human recombinant histone deacetylase 6
Histone deacetylase 2 = Histone deacetylase 2 (Homo sapiens, UniProt Q92769)
Description: Inhibition of human recombinant histone deacetylase 2

[5] = biological target: T2, Protein deacetylase HDAC6 (Homo sapiens, UniProt Q9UBN7)
T2 sequence (Q9UBN7 whole entry): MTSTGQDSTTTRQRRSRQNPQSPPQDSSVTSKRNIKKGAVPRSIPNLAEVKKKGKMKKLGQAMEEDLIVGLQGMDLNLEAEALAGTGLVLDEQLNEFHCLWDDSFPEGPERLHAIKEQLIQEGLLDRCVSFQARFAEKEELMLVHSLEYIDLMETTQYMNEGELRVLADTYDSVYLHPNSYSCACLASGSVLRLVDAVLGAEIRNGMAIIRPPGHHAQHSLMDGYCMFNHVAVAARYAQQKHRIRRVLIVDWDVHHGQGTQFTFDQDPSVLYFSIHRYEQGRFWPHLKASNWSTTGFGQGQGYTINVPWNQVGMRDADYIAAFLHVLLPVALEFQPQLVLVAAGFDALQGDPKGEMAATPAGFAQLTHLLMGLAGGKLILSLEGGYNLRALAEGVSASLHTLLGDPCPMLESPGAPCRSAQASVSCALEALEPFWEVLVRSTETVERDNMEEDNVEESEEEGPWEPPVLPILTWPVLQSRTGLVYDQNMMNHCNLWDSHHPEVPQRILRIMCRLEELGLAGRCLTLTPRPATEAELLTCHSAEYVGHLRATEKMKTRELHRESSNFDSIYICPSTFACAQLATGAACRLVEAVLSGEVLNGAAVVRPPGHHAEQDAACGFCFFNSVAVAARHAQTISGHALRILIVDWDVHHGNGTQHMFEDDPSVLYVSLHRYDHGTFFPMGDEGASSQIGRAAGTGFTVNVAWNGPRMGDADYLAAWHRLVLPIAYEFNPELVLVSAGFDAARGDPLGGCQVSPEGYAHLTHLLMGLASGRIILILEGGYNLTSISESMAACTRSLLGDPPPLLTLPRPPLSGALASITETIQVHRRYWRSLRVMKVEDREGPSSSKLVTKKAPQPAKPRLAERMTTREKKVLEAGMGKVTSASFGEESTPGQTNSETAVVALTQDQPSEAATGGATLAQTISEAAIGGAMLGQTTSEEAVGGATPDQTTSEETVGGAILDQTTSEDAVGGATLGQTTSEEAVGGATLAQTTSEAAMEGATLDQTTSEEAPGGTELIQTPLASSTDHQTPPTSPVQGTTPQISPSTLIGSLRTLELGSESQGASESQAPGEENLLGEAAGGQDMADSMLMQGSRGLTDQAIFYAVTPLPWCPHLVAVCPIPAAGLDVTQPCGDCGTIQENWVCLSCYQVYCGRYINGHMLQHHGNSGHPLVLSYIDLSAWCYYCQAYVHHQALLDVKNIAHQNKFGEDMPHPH
Description: Inhibition of human recombinant histone deacetylase 6

T-24 [6] = experiment: Selectivity ratio of EC50 for histone H3 acetylation to EC50 for alpha-tubulin acetylation in human T24 cells
T-24 [7] = experiment: Induction of alpha tubulin acetylation in human T24 cells at 1 uM preincubated 16 hrs before whole-cell lysate by Western blot analysis; type: functional, cell-based

Chain of Histone deacetylase 2 (Q92769 whole entry): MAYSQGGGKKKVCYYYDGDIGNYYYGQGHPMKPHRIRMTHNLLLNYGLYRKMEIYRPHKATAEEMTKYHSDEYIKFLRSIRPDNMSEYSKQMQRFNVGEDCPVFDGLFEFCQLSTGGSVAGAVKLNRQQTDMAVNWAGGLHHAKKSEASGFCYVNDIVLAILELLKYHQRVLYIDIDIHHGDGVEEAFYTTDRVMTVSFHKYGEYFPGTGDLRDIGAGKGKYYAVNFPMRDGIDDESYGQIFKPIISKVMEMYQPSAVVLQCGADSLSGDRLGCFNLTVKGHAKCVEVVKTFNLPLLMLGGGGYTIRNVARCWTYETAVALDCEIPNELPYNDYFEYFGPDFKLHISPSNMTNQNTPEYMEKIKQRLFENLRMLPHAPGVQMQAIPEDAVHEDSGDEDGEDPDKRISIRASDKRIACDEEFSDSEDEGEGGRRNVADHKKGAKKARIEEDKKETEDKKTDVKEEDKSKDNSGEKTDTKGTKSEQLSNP

`O=C1CN(Cc2ccc(C(=O)NO)cc2)c2ccccc2N1` was tested, and the EC50 (T-24 [1]) was 1010 nM, the EC50 (T-24 [2]) was 3580 nM and the IC50 (Histone deacetylase 8) was 520 nM. It also gave a Ratio IC50 (Homo sapiens [3]) of 4, a Ratio IC50 (Homo sapiens [4]) of 3 and an IC50 (Histone deacetylase 2) of 560 nM. The IC50 [5] was 150 nM.
`CC(C)(C)OC(=O)NCCCC[C@@H]1C(=O)Nc2ccccc2N1Cc1ccc(C(=O)NO)cc1` was tested, and the EC50 (T-24 [1]) was 90 nM, the EC50 (T-24 [2]) was 6750 nM and the IC50 (Histone deacetylase 8) was 1150 nM. For the same compound, the Ratio IC50 (Homo sapiens [3]) was 34, the Ratio IC50 (Homo sapiens [4]) was 27 and the IC50 (Histone deacetylase 2) was 1480 nM. The IC50 [5] was 40 nM and the “Ratio EC50” value (T-24 [6]) was 75.
`O=C(NO)c1ccc(CN2C(=O)CNC(=O)[C@H]2Cc2ccccc2)cc1` was tested, and the EC50 (T-24 [1]) was 1490 nM, the EC50 (T-24 [2]) was 23000 nM and the IC50 (Histone deacetylase 8) was 2340 nM. It also gave a Ratio IC50 (Homo sapiens [3]) of 33, a Ratio IC50 (Homo sapiens [4]) of 14 and an IC50 (Histone deacetylase 2) of 5540 nM. The IC50 [5] was 170 nM and the “Selectivity Index” value (T-24 [6]) was over 13.
Compound `O=C(NO)c1ccc(CN2C(=O)CNC(=O)[C@H]2Cc2c[nH]c3ccccc23)cc1` has an EC50 (T-24 [1]) of 2870 nM, an EC50 (T-24 [2]) of 12100 nM and an IC50 (Histone deacetylase 8) of 1210 nM. For the same compound, the Ratio IC50 (Homo sapiens [3]) was 17, the Ratio IC50 (Homo sapiens [4]) was 11 and the IC50 (Histone deacetylase 2) was 1810 nM. It also gave an IC50 [5] of 110 nM.
`O=C(NO)c1ccc(CN2c3ccccc3NC(=O)[C@@H]2Cc2ccccc2)cc1` showed an EC50 (T-24 [1]) of 320 nM, an EC50 (T-24 [2]) of 1900 nM and an IC50 (Histone deacetylase 8) of 210 nM. The Ratio IC50 (Homo sapiens [3]) was 2, the Ratio IC50 (Homo sapiens [4]) was 1 and the IC50 (Histone deacetylase 2) was 460 nM. It also gave an IC50 [5] of 220 nM.
Compound `O=C(NO)c1ccc(CN2c3ccccc3NC(=O)[C@H]2Cc2ccc(F)c(F)c2)cc1` has an IC50 (Histone deacetylase 8) of 420 nM, a Ratio IC50 (Homo sapiens [3]) of 11 and a Ratio IC50 (Homo sapiens [4]) of 10. For the same compound, the IC50 (Histone deacetylase 2) was 460 nM and the IC50 [5] was 40 nM.
In the case of `O=C(NO)c1ccc(CN2C(=O)CNC(=O)[C@H]2Cc2cccs2)cc1`, the EC50 (T-24 [1]) is reported as 2000 nM, the EC50 (T-24 [2]) is reported as 9000 nM and the IC50 (Histone deacetylase 8) is reported as 440 nM. For the same compound, the Ratio IC50 (Homo sapiens [3]) was 22, the Ratio IC50 (Homo sapiens [4]) was 3 and the IC50 (Histone deacetylase 2) was 3470 nM. For the same compound, the IC50 [5] was 160 nM.
In the case of `O=C(CCCCCCC(=O)Nc1ccc([C@H]2O[C@@H](CSc3nc(-c4ccccc4)c(-c4ccccc4)o3)C[C@@H](c3ccc(CO)cc3)O2)cc1)NO` [TUBACIN], the Selectivity Index (T-24 [6]) is reported as 75.
With `CC(/C=C/C(=O)NO)=C\[C@@H](C)C(=O)c1ccc(N(C)C)cc1` (racemic) [TRICHOSTATIN] the EC50 (T-24 [1]) was 10 nM and the EC50 (T-24 [2]) was 10 nM.
`O=C(NO)c1ccc(CN2c3ccccc3NC(=O)[C@H]2Cc2cccs2)cc1` showed an EC50 (T-24 [1]) of 70 nM, an EC50 (T-24 [2]) of 1220 nM and an IC50 (Histone deacetylase 8) of 690 nM. The Ratio IC50 (Homo sapiens [3]) was 21, the Ratio IC50 (Homo sapiens [4]) was 17 and the Activity (T-24 [7]) was “Active”. For the same compound, the IC50 (Histone deacetylase 2) was 870 nM, the IC50 [5] was 40 nM and the “Selectivity Index” value (T-24 [6]) was over 13.
Compound `O=C(NO)c1ccc(CN2c3ccccc3NC(=O)[C@H]2Cc2ccc(O)cc2)cc1` has an IC50 (Histone deacetylase 8) of 730 nM, a Ratio IC50 (Homo sapiens [3]) of 41 and a Ratio IC50 (Homo sapiens [4]) of 91. It also gave an IC50 (Histone deacetylase 2) of 330 nM and an IC50 [5] of 10 nM.
`O=C(NO)c1ccc(CN2c3ccccc3NC(=O)[C@H]2Cc2ccccc2)cc1` gave an EC50 (T-24 [1]) of 40 nM, an EC50 (T-24 [2]) of 520 nM and an IC50 (Histone deacetylase 8) of 530 nM. It also gave a Ratio IC50 (Homo sapiens [3]) of 26, a Ratio IC50 (Homo sapiens [4]) of 53 and an IC50 (Histone deacetylase 2) of 260 nM. For the same compound, the IC50 [5] was 10 nM and the “Selectivity Index” value (T-24 [6]) was over 13.
Work on `O=C(NO)c1ccc(CN2c3ccccc3NC(=O)[C@@H]2Cc2cccs2)cc1` yielded an EC50 (T-24 [1]) of 230 nM, an EC50 (T-24 [2]) of 2300 nM and an IC50 (Histone deacetylase 8) of 1190 nM. The Ratio IC50 (Homo sapiens [3]) was 5, the Ratio IC50 (Homo sapiens [4]) was 4 and the IC50 (Histone deacetylase 2) was 1480 nM. It also gave an IC50 [5] of 310 nM.
Compound `CC(C)(C)Oc1ccc(C[C@@H]2C(=O)Nc3ccccc3N2Cc2ccc(C(=O)NO)cc2)cc1` has an EC50 (T-24 [1]) of 80 nM, an EC50 (T-24 [2]) of 2750 nM and an IC50 (Histone deacetylase 8) of 250 nM. The Ratio IC50 (Homo sapiens [3]) was 28, the Ratio IC50 (Homo sapiens [4]) was 5 and the IC50 (Histone deacetylase 2) was 1440 nM. For the same compound, the IC50 [5] was 50 nM and the “Selectivity Index” value (T-24 [6]) was over 13.
Compound `O=C(NO)c1ccc(CN2c3ccccc3NC(=O)[C@H]2CCc2ccccc2)cc1` has an IC50 (Histone deacetylase 8) of 640 nM, a Ratio IC50 (Homo sapiens [3]) of 40 and a Ratio IC50 (Homo sapiens [4]) of 49. It also gave an IC50 (Histone deacetylase 2) of 520 nM and an IC50 [5] of 10 nM.
